In patent US20240093034A1, “FLUORESCENT DYES” (EXOPHARM LIMITED, priority 2020, published 2024):

How the values were obtained:
[1] = test system: normal human dermal fibroblasts (NHDF); assay: Labelling of human cells with dyes (plate fluorescence); assay type: cell-based; details: 2 μM dye, 1 hr 37° C., washed with HBSS; higher = more incorporation
Experimental: Labelling of human cells with dyes 1-10 was performed according to the following procedure. Each well of a Costar 96 well flat bottom plate was seeded with 5,000 normal human dermal fibroblasts (NHDF; not older than P9) and allowed to attach overnight in full media: fibroblast growth media (Lonza)+2% v/v fetal calf serum. Each dye was diluted 1:50 from a stock of 1 mM with 10 mM L-histidine, 150 mM NaCl, pH 6.0, to a final concentration of 20 μM. The dye was subsequently added to full media at a further 1:10 dilution to a final concentration of 2 μM. The media on the cells was subsequently replaced with the freshly prepared full media containing the dye. For negative controls, an equivalent volume of the diluent solution was added to the cell solution. Cells were incubated for 1 hr at 37° C. and then washed with 1 xHBSS (Hank's balanced salt solution) to remove free dye. Plate was imaged using the CLARIOStar spectrophotometer (5x5 matrix mode, average of 25 data points, 3 wells for each dye). A higher fluorescence indicates a higher amount of incorporation into the cells.

MSC-EVs = assay: Dye labelling of MSC-EV preparations analysed by imaging flow cytometry (IFCM)
Experimental: MSC-EVs were prepared form human platelet lysate containing MSC-conditioned media by polyethylene glycol 6000 precipitation followed by ultracentrifugation, as described previously (Borger, V. et al, 2020, Scaled Isolation of Mesenchymal Stem/Stromal Cell-Derived Extracellular Vesicles. Curr Protoc Stem Cell Biol 55, e128; Kordelas et al., 2014, MSC-derived exosomes: a novel tool to treat therapy-refractory graft-versus-host disease. Leukemia 28, 970-973; Ludwig et al., 2018, Precipitation with polyethylene glycol followed by washing and pelleting by ultracentrifugation enriches extracellular vesicles from tissue culture supernatants in small and large scales. J Extracell Vesicles 7, 1528109). Conditioned media were harvested every 48 h. Obtained MSC-EV preparations were diluted in NaCl-HEPES buffer (Sigma-Aldrich, Taufkirchen, Germany) such that 1 mL of final samples contained the preparation yield of the conditioned media of approximately 4.0×10^7 cells.
The staining with CFSE (Thermo Fisher Scientific, Darmstadt, Germany) was based on the manufacturer's protocol. Slight modifications were required to reduce the signal from unbound CFSE. Briefly, the CFSE stock solution was diluted to a working solution of 10 μM CFSE. The solution was centrifuged three times for 10 min at 17,000 × g. Subsequently, 25 μL of MSC-EV preparations, corresponding to the amount of EVs derived from 1×10^6 MSCs, were incubated with the centrifuged CFSE solution for 20 min at 37° C. The sample was diluted 1:20 to a final volume of 1 mL prior to analysis.
The staining of MSC-EV preparations with Calcein AM followed the manufacturer's instructions. Briefly, 25 μL of MSC-EV preparations were incubated with 25 μL of a 20 μM solution of Calcein AM (Thermo Fisher Scientific) for 40 min at 37° C. The sample was diluted 1:20 to a final volume of 1 mL to reduce background noise, avoiding the requirement of a washing step.
The staining of MSC-EV preparations with BODIPY-TR-Ceramide followed the manufacturer's instructions. Briefly, 25 μL of the MSC-EV preparation, corresponding to EVs purified from […], were incubated with 25 μL of a 20 μM solution of BODIPY TR Ceramide (Thermo Fisher Scientific) for 20 min at 37° C. 450 μL of 0.9% NaCl with 10mM HEPES (0.9% NaCl, Melsungen, B. Braun; HEPES, Thermo Fisher Scientific) buffer was added and the EVs were washed by using a Centrifugal Concentrator (Vivaspin 500; Sartorius, Gottingen, Germany). The retentate was adjusted to 500 μL prior to analysis.
The staining of MSC-EV preparations with PKH67 followed the manufacturer's instructions for labeling EVs (Thermo Fisher Scientific). Briefly, using 200 μL of given MSC-EV preparations, corresponding to EVs purified from 8×10^6 cells, the solution was adjusted with Diluent C to a final volume of 1 mL. […]

## CCCCCCCCCCCCCCCCCCN(C)C(=O)c1ccccc1-c1c2ccc(=[N+](CC)CC)cc-2oc2cc(N(CC)CC)ccc12.[Cl-] [Dye 2, Rhodamine B N-methyloctadecylamide]
[1]
  FLD: 123449
MSC-EVs; IFCM, with anti-CD9, anti-CD63, anti-CD81 counterstaining where done
  labelling of sEVs in MSC-EV preparations (conclusion): successfully labels most of the sEVs
MSC-EVs; dye + MSC-EVs
  labelled objects in MSC-EV preparations (FIG. 8): solid populations of labelled objects were observed
